# In US20250049904A1, “IMMUNOSTIMULATORY COMPOSITIONS” (VICTORIA LINK LIMITED, priority 2021, published 2025):
# “Also recorded” adds a separate entry of the source.
# How the values were obtained:
# [1] = tested on: tissue-resident memory T cells (TRM cells); assay: LPX-mRNA vaccination of mice i.v.; antigen-specific TRM, TEM and TCM cells in liver and spleen by flow cytometry; assay type: in vivo, C57BL/6 mice
# Protocol: FIG. 1 provides a graphical representation showing that LPX-mRNA vaccines containing CI058 induce high levels of liver TRM cells. Liposomes were prepared with DOTMA and DOPE lipids and complexed with mRNA encoding chicken ovalbumin (OVA) to give vaccine LPX-mOVA. Additional vaccines were prepared by including either the prototypical NKT cell agonist α-GalCer (LPX-mOVA-α-GalCer) or the derivative CI058, which has BODIPY attached via an —S in the 6 position of the galactose (LPX-mOVA-CI058). Recipient C57BL/6 mice were transferred 50,000 naïve OVA-specific TCR-transgenic CD8+ T cells (OT-I cells) to enhance the precursor frequency of antigen-specific T cells to aid detection of vaccine-induced responses. A day later, groups of mice (n=5-6) were vaccinated intravenously (0.08 nmol) with the different vaccines; a naive mouse was left untreated. After 28 days, mice were killed and liver and spleen collected for analysis of induced T cell response by flow cytometry. Antigen-specific cells were identified using fluorescent MHC/peptide tetramers containing the targeted CD8^+ T cell epitope recognised by OT-I cells, and expression of Ly5.1, a congenic marker expressed by the OT-I mouse strain and not recipient C57BL/6 mice. The antigen-specific cells were further characterised as resident-memory T cells (TRM cells; CD8^+ Ly5.1^+ […] CD62L^low cells), effector memory T cells (TEM cells; CD8^+ Ly5.1^+ CD44^+ CD69^− CD62L^low cells) or central memory cells (TCM cells; CD8^+ Ly5.1^+ CD44^+ CD69^− CD62Lhigh cells). (A) Percentages of TRM, TEM and TCM OT-I cells in each treatment group in liver. Mean±SEM for each T cell subset are shown; statistical analysis relates only to pairwise comparisons of the percentage of TRM cells between the treatment groups. Black bars: TRM cells; white bars: TEM cells; grey bars: TCM cells. *P<0.05, **P<0.01, ***P<0.001, ****P<0.0001. One-way ANOVA. (B) Percentages of RM, TEM and TCM OT-I cells in each treatment group in spleen. (C) Mean number of TRM cells in liver for each treatment group (±SEM); dots represent individual mice. Black bars: TRM cells; white bars: TEM cells; grey bars: TCM cells. *P<0.05, **P<0.01, ***P<0.001, ****P<0.0001. One-way ANOVA.
# Dose response of LPX-mOVA-α-GalCer versus LPX-mOVA-CI058 vaccines. Analysis was in C57BL/6 mice, without transfer of OT-I cells, so endogenous T cell responses were monitored on a normal T cell repertoire. Groups of 5 mice were used, and vaccines were administered intravenously. After 28 days, mice were killed and liver tissue collected for analysis of induced T cell response by flow cytometry. Antigen-specific cells were identified using fluorescent MHC/peptide tetramers, and further characterised as resident-memory T cells (TRM CD8^+ CD44^+ CD69^+ CXCR6^+ CD49a^+ CD62L^low cells), effector memory T cells (TEM CD8^+ CD44^+ CD69^− KLRG1^+ CXCR3^+ CD62L^low cells) or central memory cells (TCM CD8^+ CD44^+ CD69^− CD62L^high cells). At the same timer, NKT cells in the liver were also evaluated using fluorescent CD1d/α-GalCer tetramers. These were characterised for expression of different markers of activation, including PD-1 (only the latter is shown here). White circles: LPX-mOVA-α-GalCer; black circles: LPX-mOVA-CI058. (A) Graph showing mean number of TRM cells in liver for each treatment group (±SEM) overdose range. ****P<0.0001. (B) Graph showing mean level of expression of the “invariant” NKT cell-associated TCR for each treatment group (±SEM), defined as level of binding of fluorescent CD1d/α-GalCer tetramers and expressed as mean fluorescence index. ****P<0.0001 (C) Graph showing mean level of expression of PD-1 on NKT cells for each treatment group (±SEM). **P<0.01
# To examine whether a prodrug mechanism is involved in enhanced TRM cell induction, LPX-mOVA-CI058 vaccines were compared to vaccines containing different NKT cell agonist prodrugs. […]
# [2] = tested on: tissue-resident memory T cells (TRM cells); assay: as above; assay type: in vivo, C57BL/6 mice; remark: listed apart in the source
smiles,measurement,setting,value
"CCCCCCCCCCCCCCCCCCCCCCCCCC(=O)N[C@@H](CO[C@H]1O[C@H](CSCC(=O)Nc2ccc(C3=C4C(C)=CC(C)=[N+]4[B-](F)(F)n4c(C)cc(C)c43)cc2)[C@H](O)[C@H](O)[C@H]1O)[C@H](O)[C@H](O)CCCCCCCCCCCCCC [CI058, (2S,3S,4R)-1-(6-Deoxy-6-((2-((4-(5,5-difluoro-1,3,7,9-tetramethyl-5H-4λ4,5λ4-dipyrrolo[1,2-c:2′,1′-f][1,3,2]diazaborinin-10-yl)phenyl)amino)-2-oxoethyl)thio)-α-D-galactopyranosyloxy)-2-hexacosanoylamino-3,4-octadecandiol]",overall level of T cell accumulation in liver,[1]; LPX vaccines with vs without CI058,higher overall levels of T cell accumulation in liver
same,accumulation (population size) of TRM cells in liver,"[1]; LPX-mOVA vaccines i.v., 28-30 days, compared to vaccines with α-GalCer or without agonist",significantly larger populations of TRM cells in the liver tissue; also recorded: significantly enhanced populations of liver TRM cells; also recorded: also enhanced
same,proportion of TRM cells among antigen-specific T cells in liver and spleen,"[1]; LPX-mOVA vaccines i.v., OT-I cell transfer, 28 days after vaccination","enhanced in both tissues, although is consistently more pronounced in liver; also recorded: significantly biased towards TRM cells"
same,peak level of liver TRM cells in dose response,"[1]; LPX-mOVA-CI058 vs LPX-mOVA-α-GalCer, no OT-I transfer, day 28",significantly higher than achieved with vaccines with α-GalCer
same,lower dose giving parity in liver TRM cell levels with α-GalCer vaccine,"[1]; dose response, LPX-mOVA-CI058 vs LPX-mOVA-α-GalCer, no OT-I transfer, day 28",10 fold
same,"liver TRM cell induction, vaccine encoding malaria antigen RPL6","[1]; endogenous T cell response, no T cell transfer, 30 days",enhancing liver TRM cell induction
same,overall TRM cell accumulation in the liver,"[2]; agonist in LPX-mOVA vaccine, OT-I transfer, liver 30 days later",significantly better at inducing accumulation of TRM cells
same,proportion of liver TRM among all vaccine-induced antigen-specific T cells (TRM cell-inducing capability),"[2]; agonist in LPX-mOVA vaccine, OT-I transfer, liver 30 days later, relative to α-GalCer vaccine",superior liver TRM cell-inducing agonist
same,"proportion of antigen-specific TRM cells, liver vs spleen","[2]; malaria model vaccination, LPX-mOVA with CI058, 30 days","significant changes in proportion of antigen-specific TRM cells, which is more pronounced in liver compared to spleen"
